Test results published in patent US20050075375A1 (priority 2003, published 2005).
Where two headings read alike, the source gives them in different places.

Test system: monocistronic NK5.1 HCV replicon in Huh7 cells
Assay: HCV replicon assay, monocistronic replicon cell line
Type: cell-based, hepatitis C virus
Conditions: Hepatitis C virus, read-out: Mono EC50 Median
Summary of the method: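 Huh7 cells carrying the monocistronic NK5.1 replicon, seeded 24 h before dosing, were exposed to six-point half-log compound series (0.6% DMSO) for 3 days at 37 °C. Replicon RNA was quantified by TaqMan RT-PCR, normalised to GAPDH and compared with DMSO controls to derive EC50.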

[1] = Huh-7, 72 h, Table 1, monocistronic replicon in Huh7 cells, 3 days incubation, HCV RNA/GAPDH RNA by TaqMan RT-PCR
[2] = Huh-7, 72 h, table T3 (compounds 471-640), monocistronic replicon in Huh7 cells, 3 days incubation, HCV RNA/GAPDH RNA by TaqMan RT-PCR
[3] = Huh-7, monocistronic NK5.1 HCV replicon in Huh7 cells, median value

Compound | EC50 [1] | EC50 [3] | further results
CCOC(=O)c1cc(-c2ccc3ccccc3c2)n(-c2ccccn2)n1 [Compound 66, 5-Naphthalen-2-yl-1-pyridin-2-yl-1H-pyrazole-3-carboxylic acid ethyl ester] | 30 µM |  | 
Oc1cc(OCc2ccccc2)ccc1-c1nc(-c2cnccn2)n[nH]1 [Compound 581, 5-Benzyloxy-2-(5-pyrazin-2-yl-2H-[1,2,4]triazol-3-yl)-phenol] |  |  | EC50 [2]: > 32 µM
Oc1ccc2ccccc2c1-c1nc(-c2ncccn2)n[nH]1 [Compound 573, 1-(5-pyrimidin-2-yl-2H-[1,2,4]triazol-3-yl)-naphthalen-2-ol] |  |  | EC50 [2]: 3.5 µM
COc1ccc(OC)c(-c2nc(-c3nccc4ccccc34)no2)c1 [Compound 193, 1-[5-(2,5-Dimethoxy-phenyl)-[1,2,4]oxadiazol-3-yl]-isoquinoline] | 1.3 µM |  | 
Oc1ccccc1-c1nc(-c2ccc(C(F)(F)F)cn2)n[nH]1 [Compound 518, 2-[5-(5-trifluoromethyl-pyridin-2-yl)-2H-[1,2,4]triazol-3-yl]-phenol] |  |  | EC50 [2]: > 19 µM
Cc1cccnc1-c1nc(-c2ccccc2O)n(C)n1 [Compound 614, 2-[2-methyl-5-(3-methyl-pyridin-2-yl)-2H-[1,2,4]triazol-3-yl]-phenol] |  |  | EC50 [2]: 6.9 µM
O=[N+]([O-])c1ccc(Cl)c(-c2nc(-c3ccc(C(F)(F)F)cn3)no2)c1 [Compound 226, 2-[5-(2-Chloro-5-nitro-phenyl)-[1,2,4]oxadiazol-3-yl]-5-trifluoromethyl-pyridine] | 4.3 µM | 4.3 µM | 
Cc1cc(C(F)(F)F)cc(-n2nc(-c3c(O)ccc4ccccc34)cc2C)n1 [Compound 27, 1-[5-Methyl-i-(6-methyl-4-trifluoromethyl-pyridin-2-yl)-1 H-pyrazol-3-yl]-naphthalen-2-ol] | 12 µM |  | 
O=[N+]([O-])c1ccc(F)c(-c2nc(-c3ncccc3[N+](=O)[O-])no2)c1 [Compound 168, 2-[5-(2-Fluoro-5-nitro-phenyl)-[1,2,4]oxadiazol-3-yl]-3-nitro-pyridine] |  |  | EC50 (Huh-7, 72 h): 4.6 µM
COc1cccc(-c2nc(-c3ncccn3)n[nH]2)c1O [Compound 570, 6-Methoxy-2-(5-pyrimidin-2-yl-2H-[1,2,4]triazol-3-yl)-phenol] |  |  | EC50 [2]: > 32 µM
Fc1ccccc1-c1nnc(-c2c(Cl)cccc2Cl)o1 [Compound 335, 2-(2,6-Dichloro-phenyl)-5-(2-fluoro-phenyl)-[1,3,4]oxadiazole] |  | > 32 µM | 
Cc1cc(O)c(-c2cc(C)n(-c3ccccc3F)n2)cc1C [Compound 15, 2-[1-(2-Fluoro-phenyl)-5-methyl-1H-pyrazol-3-yl]-4,5-dimethyl-phenol] | > 19 µM |  | 
COc1cccc(-c2nc(-c3ncccc3C(F)(F)F)no2)c1 [Compound 138, 2-[5-(3-Methoxy-phenyl)-[1,2,4]oxadiazol-3-yl]-3-trifluoromethyl-pyridine] | > 19 µM |  | 
Oc1ccc(F)cc1-c1nc(-c2ccccn2)no1 [Compound 164, 4-Fluoro-2-(3-pyridin-2-yl-[1,2,4]oxadiazol-5-yl)-phenol] | 9 µM |  | 
CC(C)(C)c1ccc(O)c(-c2nc(-c3ccccn3)n[nH]2)c1 [Compound 351, 4-tert-Butyl-2-(5-pyridin-2-yl-2H-[1,2,4]triazol-3-yl)-phenol] |  | 8.6 µM | 
c1ccc(-c2ncn(-c3ccccn3)n2)cc1 [Compound 628, 2-(3-Phenyl-[1,2,4]triazol-1-yl)-pyridine] |  |  | EC50 [2]: > 32 µM
Fc1cccc(Cl)c1-c1nc(-c2cnccc2C(F)(F)F)n[nH]1 [Compound 479, 3-[5-(2-Fluoro-6-chloro-phenyl)-1H-[1,2,4]triazol-3-yl]-4-trifluoromethyl-pyridine] |  |  | EC50 [2]: > 32 µM
COc1ccc(-c2nc(-c3ccc(C(F)(F)F)cn3)no2)c(O)c1 [Compound 222, 5-Methoxy-2-[3-(5-trifluoromethyl-pyridin-2-yl)-[1,2,4]oxadiazol-5-yl]-phenol] | > 32 µM | > 32 µM | 
Fc1ccccc1-c1nnc(-c2cccs2)o1 [Compound 337, 2-(2-Fluoro-phenyl)-5-thiophen-2-yl-[1,3,4]oxadiazole] |  | > 32 µM | 
COc1ccc(O)c(-c2nc(-c3ccoc3)no2)c1 [Compound 283, 2-(3-Furan-3-yl-[1,2,4]oxadiazol-5-yl)-4-methoxy-phenol] |  | 15 µM | 
Cc1cccnc1-c1n[nH]c(-c2cccc3ccccc23)n1 [Compound 440, 3-Methyl-2-(5-naphthalen-1-yl-1H-[1,2,4]triazol-3-yl)-pyridine] |  | 5.6 µM | 
Cn1nc(-c2ccccn2)nc1-c1ccc2ccccc2c1O [Compound 606, 2-(2-Methyl-5-pyridin-2-yl-2H-[1,2,4]triazol-3-yl)-naphthalen-1-ol] |  |  | EC50 [2]: 2.4 µM
COc1ccc(OCc2ccccc2)c(-c2ccn(Cc3ccccn3)n2)c1 [Compound 114, 2-[3-(2-Benzyloxy-5-methoxy-phenyl)-pyrazol-1-ylmethyl]-pyridine] | 9.5 µM |  | 

Compound | EC50 [1] | EC50 [3] | further results
Cc1cccc(-c2n[nH]c(-c3ccccc3Br)n2)n1 [Compound 462, 2-[5-(2-Bromo-phenyl)-1H-[1,2,4]triazol-3-yl]-6-mehtyl-pyridine] |  | > 32 µM | 
COc1ccc(Br)cc1-c1nc(-c2ncccc2C(F)(F)F)n[nH]1 [Compound 553, 2-[5-(5-Bromo-2-methoxy-phenyl)-1H-[1,2,4]triazol-3-yl]-3-trifluoromethyl-pyridine] |  |  | EC50 [2]: > 19 µM
CCOc1cccc(-c2nc(-c3nccc4ccccc34)n[nH]2)c1O [Compound 372, 6-Ethoxy-2-(5-isoquinolin-1-yl-2H-[1,2,4]triazol-3-yl)-phenol] |  | > 19 µM | 
Cc1ccc(O)c(-c2nc(-c3nccc4ccccc34)no2)c1 [Compound 194, 2-(3-Isoquinolin-1-yl-[1,2,4]oxadiazol-5-yl)-4-methyl-phenol] | > 10 µM |  | 
Oc1ccc(Cl)cc1-c1nc(-c2cnccn2)n[nH]1 [Compound 579, 4-Chloro-2-(5-pyrazin-2-yl-2H-[1,2,4]triazol-3-yl)-phenol] |  |  | EC50 [2]: 5.8 µM
Oc1ccc2ccccc2c1-c1nnc(-c2ccccc2)o1 [Compound 304, 1-(5-Phenyl-[1,3,4]oxadiazol-2-yl)-naphthalen-2-ol] |  | > 32 µM | 
CCOc1cccc(-c2nc(-c3cnccn3)n[nH]2)c1O [Compound 580, 6-Ethoxy-2-(5-pyrazin-2-yl-2H-[1,2,4]triazol-3-yl)-phenol] |  |  | EC50 [2]: > 32 µM
COc1ccc([N+](=O)[O-])cc1-c1nc(-c2cccc(C)n2)n[nH]1 [Compound 407, 2-[5-(2-Methoxy-5-nitro-phenyl)-1H-[1,2,4]triazol-3-yl]-6-methyl-pyridine] |  | > 19 µM | 
Oc1ccc(O)c(-c2nc(-c3ccc(C(F)(F)F)cn3)no2)c1 [Compound 217, 2-[3-(5-Trifluoromethyl-pyridin-2-yl)-[1,2,4]oxadiazol-5-yl]-benzene-1,4-diol] | 2.1 µM | 2.1 µM | 
O=[N+]([O-])c1ccc(-c2nc(-c3ccccn3)no2)c(Cl)c1 [Compound 141, 2-[5-(2-Chloro-4-nitro-phenyl)-[1,2,4]oxadiazol-3-yl]-pyridine] | 10 µM |  | 
Oc1ccc(Cl)cc1-c1nc(-c2ccccn2)no1 [Compound 145, 4-Chloro-2-(3-pyridin-2-yl-[1,2,4]oxadiazol-5-yl)-phenol] | 2.3 µM |  | 
COc1ccc(OCc2ccccc2)c(-c2ccn(-c3ncccc3C(F)(F)F)n2)c1 [Compound 80, 2-[3-(2-Benzyloxy-5-methoxy-phenyl)-pyrazol-1-yl]-3-trifluoromethyl-pyridine] | 1.8 µM |  | 
Cc1cccc(-c2n[nH]c(-c3ccccc3F)n2)n1 [Compound 465, 2-[5-(2-Fluoro-phenyl)-1H-[1,2,4]triazol-3-yl]-6-methyl-pyridine] |  | > 32 µM | 
Oc1ccc(Br)cc1-c1ccn(-c2ncccc2C(F)(F)F)n1 [Compound 100, 4-Bromo-2-[1-(3-trifluoromethyl-pyridin-2-yl)-1H-pyrazol-3-yl]-phenol] | 2.3 µM |  | 
COc1ccc(-c2cc(C(=O)O)n(-c3ccccn3)n2)cc1 [Compound 63] | > 32 µM |  | 
Cc1cccnc1-c1n[nH]c(-c2cc(Br)ccc2O)n1 [Compound 449, 4-Bromo-2-(5-(3-methyl-pyridin-2-yl)-2H-[1,2,4]triazol-3-yl)-phenol] |  | 2.3 µM | 
Oc1ccc(Br)cc1-c1nc(-c2ccccn2)n[nH]1 [Compound 358, 4-Bromo-2-(5-pyridin-2-yl-2H-[1,2,4]triazol-3-yl)-phenol] |  | 4.3 µM | 
CCN(CC)c1ccc(-c2nc(-c3ncccc3C(F)(F)F)n[nH]2)c(O)c1 [Compound 545, 5-Diethylamino-2-[5-(3-trifluoromethyl-pyridin-2-yl)-2H-[1,2,4]triazol-3-yl]-phenol] |  |  | EC50 [2]: > 19 µM
COc1cccc(-c2nc(-c3ccc(N)cn3)no2)c1O [Compound 251, 2-[3-(5-Amino-pyridin-2-yl)-[1,2,4]oxadiazol-5-yl]-6-methoxy-phenol] |  | > 32 µM | 
Cc1ccc(O)c(-c2nc(-c3ncccc3[N+](=O)[O-])no2)c1 [Compound 174, 4-Methyl-2-[3-(3-nitro-pyridin-2-yl)-[1,2,4]oxadiazol-5-yl]-phenol] | 10 µM |  | 
Oc1ccc(Br)cc1-c1cc(-c2ccccn2)on1 [Compound 130, 4-Bromo-2-(5-pyridin-2-yl-isoxazol-3-yl)-phenol] | 11 µM |  | 
CCOc1cccc(-c2nc(-c3ccc(C(F)(F)F)cn3)no2)c1O [Compound 269, 2-Ethoxy-6-[3-(5-trifluoromethyl-pyridin-2-yl)-[1,2,4]oxadiazol-5-yl]-phenol] |  | 35.9 µM | 
Oc1ccc2ccccc2c1-c1nnc(-c2ncc(C(F)(F)F)cc2Cl)o1 [Compound 309, 1-[5-(3-Chloro-5-trifluoromethyl-pyridin-2-yl)-[1,3,4]oxadiazol-2-yl]-naphthalen-2-ol] |  | 16 µM | 
